Source: patent US20210002725A1, “METHODS FOR THE DIAGNOSIS OF METABOLIC DISORDERS USING EPIMETABOLIC SHIFTERS, MULTIDIMENSIONAL INTRACELLULAR MOLECULES, OR ENVIRONMENTAL INFLUENCES” (Berg LLC, priority 2009, published 2021)

Experiments:
IDH1 = assay: Western blot of Isocitrate Dehydrogenase-1 levels in cells treated with Coenzyme Q10; format: cell-based, human
Method: The whole cell pellets were resuspended one at a time in 1 mL of C7 buffer and transferred to labeled 15 mL tubes. The samples were then sonicated in the cold room on ice using 6 sonic pulses with the setting at #14. The samples were spun for a short time to 2500 g after sonication and the samples transferred to 2 ml tubes. The pH was verified of each sample (pH should be 9.0) using the foam remaining in the […] sample tubes.
Alkylation and reduction of samples was performed for each sample by adding 10 ul of 1M acrylamide, 25 ul of tributylphoshene and incubation for 90 mins with intermittent mixing. After incubation, 10 ul of 1M DTT was added and the tubes were spun at 20,000 g at 20 deg C. for 10 minutes and transferred the supernatant to labeled Amicon Ultra centrifugal filter units with a 10 k cut off (Millipore catalog #UFC 801024). The samples were spun for 15 minutes at 2500 g in 2 intervals. The conductivity was measured for Chaps alone as well as the samples using a conductivity meter. If the conductivity of samples is high, then 1 ml of chaps was added for buffer exchange and spun again at 2500 g until the volume was down to 250 ul. When the conductivity was 200 or less the samples were spun in 5 min intervals at 2500 g until the volume of the supernatant was between 150-100 ul. The sample supernatants were transferred to eppendorf tubes and Bradford assay was performed using BSA as standard.
The samples were processed as per standard protocols as described above and the amount of protein in each of the samples was determined by Bradford assay. Sample volumes equivalent to 10 ug of protein were prepared as shown below with Lamelli Loading dye (LDS) and MilliQ water were run on a 4-12% Bis-Tris Novex NuPAGE gel (Invitrogen, cat #NP0323Box)
The gels were run for 50 minutes using 1×MOPS buffer using a NOVEX Xcell Surelock system at 200 V. The gels were then transferred for 1 hour using a NOVEX Xcell Surelock wet transfer protocol at 30 V. The blots were stained with Simply Blue Safestain from Invitrogen (LC6065).
After transfer each of the blots was placed in between 2 Whatman Filter papers and dried for 15-20 minutes. After drying the blots were labeled with the date, the type of samples and either blot 1 or blot 2 using a HB pencil. The molecular weight markers were outlined with the pencil and with single lines for the blue and a doublet for the colored markers. The blots were activated with methanol for 5 seconds, washed with water for 5 minutes, and TBST for 15 minutes. The blots were blocked for 1 hour with 5% blocking reagent in TBS-T at room temperature and then washed 3 times with TBS-T (1×-15′; 2×5′ each). Blot 1 was probed with the primary antibody for IDH1 (Cell Signaling #3997) in TBST with 5% BSA (at 1:1000 dilutions) and blot 2 with the rabbit polyclonal antibody for ATP Citrate Lyase in 5% BSA (Cell Signaling #4332) at 1:1000 dilution by incubation overnight at 4 deg C. with shaking. After the overnight incubation with primary antibodies, the blots were washed 3 times with TBS-T (1×-15′; 2×5′ each) and probed with the secondary antibody (antirabbit; 1:10,000 dilution) for 1 hon the orbital tilting shaker at room temperature. After 1 h of incubation with secondary antibodies, the blots were washed 3 times with TBS-T (1×-15′; 2×5′ each) and then incubated with ECF reagent for 5 mins and then each blot scanned with 5100 Fuji Laser scanner at 25 uM resolution, 16 bit, green laser, at 400V and at 500 V.
The samples were processed and run on a 4-12% Bis-Tris Novex NuPAGE gel as described above. The gels were run, transferred and stained essentially as described above.
After transfer the blot was dried for 15-20 minutes, activated with methanol for 5 seconds, washed with water for 5 minutes, and TBST for 15 minutes. The blot was blocked for 1 hour with 5% blocking reagent in TBS-T at room temperature and then washed 3 times with TBS-T (1×-15′; 2×5′ each). […]

[1] = test system: HepG2 (liver cancer) cells; assay: Real-time PCR Diabetes Array; format: cell-based; conditions: for genes regulated in the Diabetes Arrays: 100 μM
Method: The treatment was initiated on 1×10^5 cells per well, following the procedure utilized in the PaCa2 cells (above, Examples 9-11). However, the total amount of RNA that was extracted from these samples was lower than expected. Reverse transcription is normally done using 1 μg of total RNA (determined by measurement at 260 nm).

[2] = test system: control and cancer cell lines; assay: Sensitivity and apoptotic response of a panel of control and cancer cell lines; format: cell-based; conditions: various levels of Coenzyme Q10
Method: In a first set of experiments, changes to cell morphology/physiology were evaluated by examining the sensitivy and apoptotic response of cells to CoQ10. […] Exemplary experiments are described in detail in Example 3 below.

SCC cells = assay: Real-time PCR Diabetes Array; format: cell-based; conditions: 100 μM
Description: The control cells were untreated cells.

## COC1=C(OC)C(=O)C(C/C=C(\C)CC/C=C(\C)CC/C=C(\C)CC/C=C(\C)CC/C=C(\C)CC/C=C(\C)CC/C=C(\C)CC/C=C(\C)CC/C=C(\C)CCC=C(C)C)=C(C)C1=O [Q10, Coenzyme Q10]
IDH1; HASMC human aortic smooth muscle cells
  expression of IDH1: did not demonstrate significant changes
IDH1; HDFa primary human derived fibroblasts
  expression of IDH1: did not demonstrate significant changes
IDH1; HDFa, 24 h, 100 μM
  IDH1 Average Normalized Intensity: 600
IDH1; HepG2 cells
  expression of IDH1: increased expression
IDH1; MCF-7 cells
  expression of IDH1: increased expression
IDH1; PACA2, 5 g, 48 h, 100 μM
  IDH1 Normalized Intensity: 860
IDH1; PaCa-2 cells
  expression of IDH1: increased expression
IDH1; SCC25 cell lines
  expression of IDH1: moderate increase
IDH1; SKMEL28 cells
  expression of IDH1: increased expression
IDH1; nFIB fibroblasts
  expression of IDH1: did not demonstrate significant changes
[1]; 100 μM Q10, 16 hours
  PPARGC1A downregulation: approximately 20 fold
  PRKAA1 downregulation: ~6 fold
  SNAP25 downregulation: ~5 fold
[1]; 100 μM Q10, 48 hours
  PPARGC1A regulation: normalized or were slightly upregulated
  PRKAA1 regulation: normalized or were slightly upregulated
  SNAP25 downregulation: approximately 2 fold
[1]; PPARGC1A gene
  genes regulated in the Diabetes Arrays: PPARGC1A
[1]; PRKAA1 gene
  genes regulated in the Diabetes Arrays: PRKAA1
[1]; SNAP25 gene
  genes regulated in the Diabetes Arrays: SNAP25
[2]
  apoptotic response of cancer vs control cell lines: induction of apoptosis and cell death in the cancer cells only
SCC cells; at 6 and 24 hours
  TNFRSF1A gene Regulation: Down regulated at 6 and 24
SCC cells; at 6 hours
  G6PD gene Regulation: Down regulated at 6 hours.
  ICAM1 gene Regulation: Down regulated at 6 hours.
  INPPL1 gene Regulation: Down regulated at 6 hours.
  NOS3 gene Regulation: Down regulated at 6 hours.
  PIK3CD gene Regulation: Down regulated at 6 hours.
  PPARA gene Regulation: Down regulated at 6 hours.
  PYGL gene Regulation: Down regulated at 6 hours.
  SREBF1 gene Regulation: Down regulated at 6 hours.
  STXBP2 gene Regulation: Down regulated at 6 hours.
  TNF gene Regulation: Down regulated at 6 hours.
  VEGFA gene Regulation: Down regulated at 6 hours.
